Like-named read-outs stand apart in the source and are kept apart here.
Assays:
[1] = methanol, 50 mg orange fiber
[2] = Human studies with pea and orange fiber snack prototypes: fecal N-methylserotonin and serotonin levels; type: in vivo
Procedure: Human studies with pea and orange fiber snack prototypes. Two separate open-label, single group assignment studies were performed involving members of the Missouri Adolescent Female Twin Study (MOAFTS) cohort who were age 31-45 years at the time of enrollment. The first study with the pea fiber snack was performed between April and August 2017, while the second study with the orange fiber snack was conducted between August and December 2017. All participants provided written informed consent and the studies were approved by the Washington University Institutional Review Board (IRB ID #201611122). (ClinicalTrials.gov NCT03078283).
The design of the two studies were identical except for the fiber snack supplement used and the number of participants in each study. Individuals who were pregnant or trying to get pregnant, had inflammatory bowel disease, gastrointestinal cancer, hepatitis, HIV, renal failure, or allergies to dairy, eggs, fish, crustacean shellfish, tree nuts, sesame seeds, peanuts, wheat, gluten, soybeans, celery, or mustard were excluded from the study. In Study 1, four twin pairs were concordant for obesity (BMI>30 kg/m2) while five pairs were discordant with one member being obese and the other non-obese (n=18 participants, […] (mean±SD); Table S8B). Study 2 involved 24 participants: 12 dizygotic twin pairs [37±2.9 years (mean±SD)], nine of whom had participated in the pea fiber study; for these nine pairs, the interval between cessation of pea fiber snack consumption and initiation of orange fiber consumption ranged from 50 to 106 days [84+26 days (mean±SD)]. Participants consumed their normal, unrestricted diet for the first two weeks of the study (pre-intervention phase). At the beginning of week three, they supplemented their diets with one 35 g fiber snack serving a day for one week, then two 35 g snack servings a day the following week, and thereafter, three 35 g snacks per day for four weeks (weeks 5-8) at breakfast, lunch and dinner. No attempt was made to adjust the diets of participants other than supplementation with the fiber snack. Snack prototypes were manufactured by Mondeldz International, Inc. (see Table S8A for their composition), which participants received in weekly shipments from the study center. The pea fiber snacks were in the form of rotary biscuits (6.7 g total fiber/35 g snack) or extruded bars (8.1 g fiber/35 g snack) with participants having the option to alternate between them. The orange fiber snacks were all in the form of extruded bars (10.2 g total fiber/35 g snack). Compliance was monitored throughout by the study coordinator through weekly phone calls. The primary outcomes for each study were the effects of the respective prototypes on gut microbial community structure and function.
Fecal samples were collected by participants in small medically approved collection containers. Each fecal sample was frozen immediately at −20° C. and temporarily stored in dedicated freezers provided to participants at the beginning of the study. Within 12-48 hours after collection, all samples were shipped, via overnight delivery, in an insulated container containing frozen gel packs, to a biospecimen repository located in Washington University in St. Louis and overseen by one of the authors (A.C.H.). Once received, samples were stored at −80° C. until processing for LC-QqQ-MS analysis of N-methylserotonin levels and culture-independent characterization of ASV and CAZyme gene abundances.
Measurement of fecal N-methylserotonin levels—Each fecal sample was homogenized with a porcelain mortar (4 L) and pestle while submerged in liquid nitrogen; multiple 500 mg aliquots of the pulverized frozen material were stored at −80° C. N-methylserotonin was quantified using the same protocol that was employed for mouse fecal samples (as described herein elsewhere).
N-methylserotonin levels and microbiome CAZyme gene abundances in humans consuming fiber snack prototypes. […]

liver gene expression = assay: RNA-Seq of liver of germ-free mice treated with 50 mg/kg/d N-methylserotonin; type: in vivo, germ-free C57BL/6J mice
Procedure: RNA-Seq of liver and colonic tissue. Frozen tissue was broken into small pieces and ground into a very fine powder under liquid nitrogen using a mortar and pestle. A 25 mg aliquot of powdered tissue was then aliquoted into shearing matrix F (MP Bio) pre-chilled in liquid nitrogen; 0.5 mL of buffer LBP (Takara) was added immediately and the mixture was placed on a 4° C. cold block. Samples were then disrupted (Biospec bead beater; 2 minutes). The remaining steps in the RNA isolation procedure were performed using a Takara Nucleospin RNA Plus kit. […] Libraries were sequenced using an Illumina Hi-Seq instrument (paired end 75 nucleotide reads; 1.43×10^7±3.74×10^6 reads/liver sample, and 3.27×10^7±1.23×10^6 reads/colon sample). Reads were aligned to the Mus musculus GRCm39 genome assembly with STAR version 2.7.0d. Gene count data were generated from the number of uniquely aligned reads (featureCounts Subread version 1.6.2a). The R package DESEQ2 was used to perform differential gene expression analysis; results were filtered based on an adjusted Benjamini and Hochberg FDR p-value<0.05. Gene set enrichment analysis was carried out using ClusterProfiler with an adjusted p-value cut-off of <0.05 and minimum gene-set size of 3; over-representation was carried out using a loge fold-change cut-off of >1.
Per2 promotes glycogen synthesis. Moreover, genetically engineered disruption of Per3 is associated with resistance to leptin with resulting weight gain, while its deletion directly leads to increased adipogenesis. […] Nfil3 serves as an important link between the gut microbiota, intestinal epithelial lipid metabolism and body composition. […] Moreover, genetic ablation of Nfil3 attenuates high fat diet-induced obesity in mice.

Structure (SMILES): CNCCc1c[nH]c2ccc(O)cc12 [N-methylserotonin]
- N-methylserotonin released after two rounds of extraction [1]: 31 ng
- N-methylserotonin released in total after 15 rounds [1]: 171 ng
- N-methylserotonin recovered ([1]; Extraction 1): 16 ng
- N-methylserotonin recovered ([1]; Extraction 2): 15 ng
- N-methylserotonin recovered ([1]; Extraction 3): 16 ng
- N-methylserotonin recovered ([1]; Extraction 4): 15 ng
- N-methylserotonin recovered ([1]; Extraction 5): 14 ng
- N-methylserotonin recovered ([1]; Extraction 6): 13 ng
- N-methylserotonin recovered ([1]; Extraction 7): 12 ng
- N-methylserotonin recovered ([1]; Extraction 8): 10 ng
- N-methylserotonin recovered ([1]; Extraction 9): 11 ng
- N-methylserotonin recovered ([1]; Extraction 10): 10 ng
- N-methylserotonin recovered ([1]; Extraction 11): 9 ng
- N-methylserotonin recovered ([1]; Extraction 12): 9 ng
- N-methylserotonin recovered ([1]; Extraction 13): 8 ng
- N-methylserotonin recovered ([1]; Extraction 14): 7 ng
- N-methylserotonin recovered ([1]; Extraction 15): 6 ng
- fecal samples in which N-methylserotonin was undetectable ([2]; 36 samples, pea fiber snack prototype, weeks 3 and 5): 87%
- fecal samples in which N-methylserotonin was present ([2]; 48 samples, participants consuming the orange fiber snack prototype): 98%
- fecal N-methylserotonin concentration ([2]; orange fiber snacks at maximal dose (3 snacks/day), mean±SD): 72.5 ± 38.4 µM
- fecal N-methylserotonin (undetectable) ([2]; pea fiber snack prototype, 87% of 36 samples): < 0.05 µg/g
- hepatic levels of Nfil3 mRNA (liver gene expression; 50 mg/kg/d vs untreated): statistically significantly decreased
- liver expression of Arntl and Clock (liver gene expression; 50 mg/kg/d vs untreated): significantly decreased expression
- liver expression of Per2, Per3, and Nr1d2 (liver gene expression; 50 mg/kg/d vs untreated): significant increases in expression
- number of genes with statistically significant differences in expression in liver (liver gene expression; 50 mg/kg/d vs untreated, FDR adjusted p<0.05): 716 genes
- log2 fold-change, 0610005C13Rik (Entrez 71661) (liver gene expression; upregulated gene in liver: 0610005C13Rik): 0.39
- log2 fold-change, 2810013P06Rik (Entrez 100503178) (liver gene expression; upregulated gene in liver: 2810013P06Rik): 0.57
- log2 fold-change, 4930523C07Rik (Entrez 67647) (liver gene expression; upregulated gene in liver: 4930523C07Rik): 0.33
- log2 fold-change, Arl13b (Entrez 68146) (liver gene expression; upregulated gene in liver: Arl13b): 0.37
- log2 fold-change, Ccne2 (Entrez 12448) (liver gene expression; upregulated gene in liver: Ccne2): 0.70
- log2 fold-change, Clic1 (Entrez 114584) (liver gene expression; upregulated gene in liver: Clic1): 0.35
- log2 fold-change, Crebrf (Entrez 77128) (liver gene expression; upregulated gene in liver: Crebrf): 0.32
- log2 fold-change, Dixdc1 (Entrez 330938) (liver gene expression; upregulated gene in liver: Dixdc1): 0.32
- log2 fold-change, Fam50a (Entrez 108160) (liver gene expression; upregulated gene in liver: Fam50a): 0.41
- log2 fold-change, Fam126b (Entrez 213056) (liver gene expression; upregulated gene in liver: Fam126b): 0.31
- log2 fold-change, Hebp1 (Entrez 15199) (liver gene expression; upregulated gene in liver: Hebp1): 0.38
- log2 fold-change, Ihh (Entrez 16147) (liver gene expression; upregulated gene in liver: Ihh): 0.74
- log2 fold-change, Kyat1 (Entrez 70266) (liver gene expression; upregulated gene in liver: Kyat1): 0.24
- log2 fold-change, Map1lc3b (Entrez 67443) (liver gene expression; upregulated gene in liver: Map1lc3b): 0.28
- log2 fold-change, Mbtd1 (Entrez 103537) (liver gene expression; upregulated gene in liver: Mbtd1): 0.48
- log2 fold-change, Mxi1 (Entrez 17859) (liver gene expression; upregulated gene in liver: Mxi1): 0.29
- log2 fold-change, Pdcd4 (Entrez 18569) (liver gene expression; upregulated gene in liver: Pdcd4): 0.36
- log2 fold-change, Pnldc1 (Entrez 240023) (liver gene expression; upregulated gene in liver: Pnldc1): 0.83
- log2 fold-change, Prkag2 (Entrez 108099) (liver gene expression; upregulated gene in liver: Prkag2): 0.36
- log2 fold-change, Rcl1 (Entrez 59028) (liver gene expression; upregulated gene in liver: Rcl1): 0.28
- log2 fold-change, Rps15 (Entrez 20054) (liver gene expression; upregulated gene in liver: Rps15): 0.38
- log2 fold-change, Serpina7 (Entrez 331535) (liver gene expression; upregulated gene in liver: Serpina7): 0.41
- log2 fold-change, Smarcd2 (Entrez 83796) (liver gene expression; upregulated gene in liver: Smarcd2): 0.27
- log2 fold-change, Syne3 (Entrez 212073) (liver gene expression; upregulated gene in liver: Syne3, treated vs untreated germ-free mice): 0.57
- log2 fold-change, Tbc1d10a (Entrez 103724) (liver gene expression; upregulated gene in liver: Tbc1d10a): 0.61
- log2 fold-change, Tedc2 (Entrez 72016) (liver gene expression; upregulated gene in liver: Tedc2): 0.43
- log2 fold-change, Ube2b (Entrez 22210) (liver gene expression; upregulated gene in liver: Ube2b): 0.41
- log2 fold-change, Uchl5 (Entrez 56207) (liver gene expression; upregulated gene in liver: Uchl5): 0.34
- log2 fold-change, Zc3h6 (Entrez 78751) (liver gene expression; upregulated gene in liver: Zc3h6): 0.63
- log2 fold-change, Zfp64 (Entrez 22722) (liver gene expression; upregulated gene in liver: Zfp64): 0.41
- log2 fold-change, Zfp960 (Entrez 449000) (liver gene expression; upregulated gene in liver: Zfp960): 0.60

Reference: patent US20250345370A1, “MICROBIAL LIBERATION OF N-METHYLSEROTONIN FROM ORANGE FIBER” (Washington University, priority 2022, published 2025)
